# Results reported in patent US8017612B2, “Piperazine compound and use thereof as a HCV polymerase inhibitor” (priority 2006, dated 2011).
# Assays:
# [1] = target: T1, HCV polymerase (NS5B) type 1a (Hepatitis C virus genotype 1a, UniProt P26664); test: Assay of enzyme (HCV polymerase) inhibitory activity, type 1a enzyme; format: biochemical, HCV type 1a (cloned from the blood of patients)
# T1 construct: made in house; host or cells: Escherichia coli (by the 'similar method' of the 1b enzyme)
# Text: (§1) The evaluation of the HCV polymerase inhibitory activity of the compound of the present invention is explained in the following. This polymerase is an enzyme coded for by the non-structural protein region called NS5B on the genome RNA of HCV.
# (§2) i) Preparation of Enzyme (HCV Polymerase)
# (§3) Using, as a template, a cDNA clone corresponding to the full length genome RNA of HCV BK strain (type 1b) obtained from the blood of a patient with hepatitis C, a region encoding NS5B (J Virol 1991 March, 65(3), 1105-13, 544 amino acids after deletion of 47 amino acids on the C-terminal) was amplified by PCR. The objective gene was prepared by adding a 6 His tag {base pair encoding 6 continuous histidine (His)} to the 3′ end thereof and transformed to Escherichia coli. The Escherichia coli capable of producing the objective protein was cultured. The obtained cells were suspended in a buffer solution and crushed in a microfluidizer. The supernatant was obtained by centrifugation and applied to various column chromatographys {mono-S, Sephacryl S-200 (Pharmacia)}, inclusive of metal chelate chromatography, to give a standard enzyme product.
# Standard enzyme products for type 1a (cloned from the blood of patients) were also obtained by a similar method.
# (§4) ii) Synthesis of Substrate RNA
# (§5) Using a synthetic primer designed based on the sequence of HCV genomic 3′ untranslated region, a DNA fragment (148 bp) containing polyU and 3′X sequence was entirely synthesized and cloned into plasmid pBluescript SK II(+) (Stratagene). The cDNA encoding full length NS5B, which was prepared in i) above, was digested with restriction enzyme KpnI to give a cDNA fragment containing the nucleotide sequence of from the restriction enzyme cleavage site to the termination codon. This cDNA fragment was inserted into the upstream of 3′ untranslated region of the DNA in pBluescript SK II(+) and ligated. The about 450 bp inserted DNA sequence was used as a template in the preparation of substrate RNA. This plasmid was cleaved immediately after the 3′X sequence, linearized and purified by phenol-chloroform treatment and ethanol precipitation to give DNA.
# (§6) RNA was synthesized (37° C., 4 hr) by run-off method using this purified DNA as a template, a promoter of pBluescript SK II(+), MEGAscript RNA synthesis kit (Ambion) and T7 RNA polymerase. DNase I was added and the mixture was incubated for 1 hr. The template DNA was removed by decomposition to give a crude RNA product. This crude product was treated with phenol-chloroform and purified by ethanol precipitation to give the objective substrate RNA.
# (§7) This RNA was applied to urea denaturation polyacrylamide gel electrophoresis to confirm the quality thereof and preserved at −80° C.
# (§8) iii) Assay of Enzyme (HCV Polymerase) inhibitory activity
# (§9) A test substance (compound of the present invention) and a reaction mixture (30 μl) having the following composition were reacted at 25° C. for 60 min.
# (§10) 10% Trichloroacetic acid and 1% sodium pyrophosphate solution (150 μl) at 4° C. was added to this reaction mixture to stop the reaction. The reaction mixture was left standing at 4° C. for 15 min to insolubilize RNA. This RNA was trapped on a glass filter (PerkinElmer, GF/B) upon filtration by suction. This filter was washed with a solution containing 1% trichloroacetic acid and 0.1% sodium pyrophosphate, washed with 90% ethanol and dried. A liquid scintillation cocktail (PerkinElmer) was added and the radioactivity of RNA synthesized by the enzyme reaction was measured on a liquid scintillation counter.
# The HCV polymerase inhibitory activity (IC50) of the compound of the present invention was calculated from the values of radioactivity of the enzyme reaction with and without the test substance. […]
# [2] = target: T2, HCV polymerase (NS5B) type 1b (Hepatitis C virus genotype 1b, UniProt P26663); test: Assay of enzyme (HCV polymerase) inhibitory activity, type 1b enzyme; format: biochemical, HCV BK strain (type 1b)
# T2 construct: a region encoding NS5B (J Virol 1991 March, 65(3), 1105-13, 544 amino acids after deletion of 47 amino acids on the C-terminal); 6xHis (C); made in house; host or cells: Escherichia coli
# Text: as §1, §2, §3, §4, §5, §6, §7, §8, §9, §10
# The HCV polymerase inhibitory activity (IC50) of the compound of the present invention was calculated from the values of radioactivity of the enzyme reaction with and without the test substance.
# Reaction mixture: HCV polymerase (type 1b 0.5 μg/ml or type 1a 1.5 μg/m) obtained in i), substrate RNA (5 μg/ml) obtained in ii), ATP (50 μM), GTP (50 μM), CTP (50 μM), UTP (2 μM), [5,6-^3H]UTP (30-60 Ci/mmol (Amersham Biosciences), 1 μCi) 20 mM Tris-HCl (pH 7.5), EDTA (1 mM), MgCl2 (5 mM), NaCl (50 mM), DTT (1 mM), BSA (0.01%)
# [3] = HCV polymerase inhibitory activity IC50, 1a, type 1a enzyme
# [4] = HCV polymerase inhibitory activity IC50, 1b, type 1b enzyme
# [5] = HCV polymerase inhibitory activity (IC50), 1a, type 1a enzyme 1.5 μg/ml, 25° C., 60 min
# [6] = HCV polymerase inhibitory activity (IC50), 1b, type 1b enzyme 0.5 μg/ml, 25° C., 60 min
SMILES,"IC50 [1, 3] [nM]","IC50 [2, 4] [nM]","IC50 [1, 5] [nM]","IC50 [2, 6] [nM]"
"O=C(NCc1ccc(OC(F)(F)F)cc1)[C@H]1CN(c2nc3nc(Cl)nc(Cl)c3s2)CCN1S(=O)(=O)c1ccc(OC(F)(F)F)cc1 [Example 800, (R)-4-(5,7-dichloro-thiazolo[4,5-d]pyrimidin-2-yl)-1-(4-trifluoromethoxy-benzenesulfonyl)-piperazine-2-carboxylic acid 4-trifluoromethoxy-benzylamide]",< 100,< 100,,
"CCCc1ccc(CNC(=O)[C@H]2CN(C(=O)Nc3ccccc3O)CCN2S(=O)(=O)c2ccc(OC(F)(F)F)cc2)cc1 [Example 834, (R)-4-(4-trifluoromethoxy-benzenesulfonyl)-piperazine-1,3-dicarboxylic acid 1-[(2-hydroxy-phenyl)-amide] 3-(4-propyl-benzylamide)]",100 to 1000,100 to 1000,,
"CCC(F)(F)c1ccc(CNC(=O)[C@H]2CN(C(=O)Nc3ccnc(C(=O)N4CCOCC4)c3)CCN2S(=O)(=O)c2ccc(OC(F)(F)F)cc2)cc1 [Example 513, (R)-4-(4-trifluoromethoxy-benzenesulfonyl)-piperazine-1,3-dicarboxylic acid 3-[4-(1,1-difluoro-propyl)-benzylamide] 1-{[2-(morpholine-4-carbonyl)-pyridin-4-yl]-amide}]",,,< 100,< 100
"O=C(NCc1ccc(OC(F)(F)F)cc1)[C@H]1CN(c2nc3nc(C(F)(F)F)ncc3s2)CCN1S(=O)(=O)c1ccc(C2CC2)cc1 [Example 1100, (R)-4-(5-trifluoromethyl-thiazolo[4,5-d]pyrimidin-2-yl)-1-(4-cyclopropyl-benzenesulfonyl)-piperazine-2-carboxylic acid 4-trifluoromethoxy-benzylamide]",< 100,< 100,,
"Cc1ncc2sc(N3CCN(S(=O)(=O)c4ccc(OC(F)(F)F)cc4)[C@@H](C(=O)NCc4ccc(OC(F)F)cc4)C3)nc2n1 [Example 942, (R)-4-(5-methyl-thiazolo[4,5-d]pyrimidin-2-yl)-1-(4-trifluoromethoxy-benzenesulfonyl)-piperazine-2-carboxylic acid 4-difluoromethoxy-benzylamide]",< 100,< 100,,
"O=C(O)c1cncc2sc(N3CCN(S(=O)(=O)c4ccc(OC(F)(F)F)cc4)[C@@H](C(=O)NCc4ccc(OC(F)F)c(F)c4)C3)nc12 [Example 1109, 2-[(R)-3-(4-difluoromethoxy-3-fluoro-benzylcarbamoyl)-4-(4-trifluoromethoxy-benzenesulfonyl)-piperazin-1-yl]-thiazolo[5,4-c]pyridine-7-carboxylic acid]",< 100,< 100,,
"CCCc1ccc(CNC(=O)[C@H]2CN(c3nc4cn[nH]c(=O)c4s3)CCN2S(=O)(=O)c2ccc([N+](=O)[O-])cc2)cc1 [Example 825, (R)-1-(4-nitro-benzenesulfonyl)-4-(7-oxo-6,7-dihydro-thiazolo[4,5-d]pyridazin-2-yl)-piperazine-2-carboxylic acid 4-propyl-benzylamide]",< 100,< 100,,
"CC(=O)N1CCN(S(=O)(=O)c2ccc(CC(C)C)cc2)[C@@H](C(=O)NCc2ccc(C(C)C)cc2)C1 [Example 194, (R)-4-acetyl-1-(4-isobutyl-benzenesulfonyl)-piperazine-2-carboxylic acid 4-isopropyl-benzylamide]",,,< 100,< 100
"O=C(NCc1ccc(OC(F)(F)F)cc1)[C@H]1CN(c2nc3ncncc3s2)CCN1S(=O)(=O)c1ccc(OC(F)(F)C(F)F)cc1 [Example 960, (R)-1-[4-(1,1,2,2-tetrafluoro-ethoxy)-benzenesulfonyl]-4-thiazolo[4,5-d]pyrimidin-2-yl-piperazine-2-carboxylic acid 4-trifluoromethoxy-benzylamide]",< 100,< 100,,
"CCC(F)(F)c1ccc(CNC(=O)[C@H]2CN(c3cc(N)ncn3)CCN2S(=O)(=O)c2ccc(OC(F)(F)F)cc2)cc1 [Example 605, (R)-4-(6-amino-pyrimidin-4-yl)-1-(4-trifluoromethoxy-benzenesulfonyl)-piperazine-2-carboxylic acid 4-(1,1-difluoro-propyl)-benzylamide]",,,< 100,< 100
"N#Cc1ncc2sc(N3CCN(S(=O)(=O)c4ccc(C(F)(F)F)cc4)[C@@H](C(=O)NCc4ccc(OC(F)F)cc4)C3)nc2n1 [Example 1011, (R)-4-(5-cyano-thiazolo[4,5-d]pyrimidin-2-yl)-1-(4-trifluoromethyl-benzenesulfonyl)-piperazine-2-carboxylic acid 4-difluoromethoxy-benzylamide]",< 100,< 100,,
"CC(C)c1ccc(CNC(=O)[C@H]2CN(C(=O)NS(=O)(=O)c3ccccc3)CCN2S(=O)(=O)c2ccc(C(F)(F)F)cc2)cc1 [Example 265, (R)-4-benzenesulfonylaminocarbonyl-1-(4-trifluoromethyl-benzenesulfonyl)-piperazine-2-carboxylic acid 4-isopropyl-benzylamide]",,,> 1000,> 1000
"CC(=O)N1CCN(S(=O)(=O)c2ccc(OC(F)(F)F)cc2)[C@@H](C(=O)NCc2ccc(C(F)(F)C(F)(F)F)cc2)C1 [Example 550, (R)-4-acetyl-1-(4-trifluoromethoxy-benzenesulfonyl)-piperazine-2-carboxylic acid 4-pentafluoroethyl-benzylamide]",,,100 to 1000,100 to 1000
"CCCc1ccc(CNC(=O)[C@H]2CN(c3cnc4c(C(=O)O)cccc4n3)CCN2S(=O)(=O)c2ccc(OC(F)(F)F)cc2)cc1 [Example 817, 2-[(R)-3-(4-propyl-benzylcarbamoyl)-4-(4-trifluoromethoxy-benzenesulfonyl)-piperazin-1-yl]-quinoxaline-5-carboxylic acid]",< 100,< 100,,
"CC(=O)N1CCN(S(=O)(=O)c2ccc(N(C)C)cc2)C(C(=O)NCc2ccc(C(F)(F)F)cc2)C1 (stereo not shown) [Example 92, 4-acetyl-1-(4-dimethylamino-benzenesulfonyl)-piperazine-2-carboxylic acid 4-trifluoromethyl-benzylamide]",,,> 1000,> 1000
"O=C(NCc1ccc(OC(F)(F)F)cc1)[C@H]1CN(c2nc3nc(Cl)ncc3s2)CCN1S(=O)(=O)c1ccc(OC(F)F)cc1 [Example 918, (R)-4-(5-chloro-thiazolo[4,5-d]pyrimidin-2-yl)-1-(4-difluoromethoxy-benzenesulfonyl)-piperazine-2-carboxylic acid 4-trifluoromethoxy-benzylamide]",< 100,< 100,,
"CCC(F)(F)c1ccc(CNC(=O)[C@H]2CN(C(=O)Nc3ccnc(C(=O)OC(C)(C)C)c3)CCN2S(=O)(=O)c2ccc(OC(F)(F)F)cc2)cc1 [Example 491, 4-{[(R)-3-[4-(1,1-difluoro-propyl)-benzylcarbamoyl]-4-(4-trifluoromethoxy-benzenesulfonyl)-piperazine-1-carbonyl]-amino}-pyridine-2-carboxylic acid tert-butyl ester]",,,< 100,< 100
